Counter-ions that a name gives are not always drawn.

Assay in one series: not given
Conditions: in water; cited from earlier work.
In the case of `CC(C)(O)C(Cl)(Cl)Cl` [chlorobutanol, 1,1,1-Trichloro-2-methylpropan-2-ol], the solubility in water entry was “about 0.8%”.
Take `OCc1ccccc1` [benzyl alcohol]: the solubility in water result is reported as “about 4%”.
`OCCc1ccccc1` [2-phenylethanol]: the solubility in water entry is given as “about 2%”.
As to `[H]/N=C(\N/C(=N/[H])NCCCCCCNC(=N)NC(=N)Nc1ccc(Cl)cc1)Nc1ccc(Cl)cc1` [digluconate salt, 1,1'-hexamethylene bis(5-(p-chlorophenyl)biguanide), reference compound], the solubility in water entry was “about 70%”.
As to `[H]/N=C(\N/C(=N/[H])NCCCCCCNC(=N)NC(=N)Nc1ccc(Cl)cc1)Nc1ccc(Cl)cc1` [diacetate salt, 1,1'-hexamethylene bis(5-(p-chlorophenyl)biguanide), reference compound], the solubility in water result is “about 1.8%”.
In the case of `O=[N+]([O-])C1(Br)COCOC1` [Bronidox L, 5-bromo-5-nitro-1,3-dioxane], the solubility in water entry is reported as “about 0.46%”.
Consider `[Na+].[O-][n+]1ccccc1[S-]` [sodium pyrithione], for which the solubility in water entry is “about 50%”.
In the case of `CC1(C)C(=O)N(CO)C(=O)N1CO` [DMDM hydantoin, 1,3-bis(hydroxymethyl)-5,5-dimethyl-2,4-imidazolidinedione], the solubility in water entry is given as “more than 50%”.
In the case of `OCCOc1ccccc1` [2-phenoxyethanol], the solubility in water result is “about 2.67%”.

Still in this series, the particulars now being: result in words; cited from earlier work.
With `ClC=CC[N+]12CN3CN(CN(C3)C1)C2.[Cl-]` [Dowicil 200, 1-(3-Chlorallyl) -3,5,7-triaza-1-azoniaadamantane chloride], the solubility in water result was “freely soluble in water”.

Assay in another series: not given
To be noted: cited from earlier work.
As to `Cn1sc2c(c1=O)CCC2` [Promexal, 2-methyl-4,5-trimethylene-4-isothiazolin-3-one], the “stability over a wide pH range” value was 4-12.
Consider `O=c1[nH]sc2ccccc12` [Proxel, 1,2-benzisothiazolin-3-one], for which the “stability over a wide pH range” value was 4-12.

The nature of a further series: Interaction of perfume components with cyclodextrin (CD). The format is physicochemical. To be noted: perfume component with cyclodextrin. The text has this: The following table illustrates the molecular weight property of some of the preferred perfume versus non-preferred perfume components.
Examples of Perfume Components for CD Interaction
On to `CC(=O)OC1CC2CC1C1CC=CC21` (centres unmarked) [Flor Acetate], for which the CD interaction result is “strong”.
The same measure, in the same setting: in the case of `CCCCCCCCCCCCCC(=O)OC(C)C` [Iso-propyl Myristate] it was “weak”; in that of `CC(C)(O)CCCC1=CCC(C=O)CC1` (centres unmarked) [Lyral], “weak”; in that of `CC(=O)OC(C)(C)C1CC=C(C)CC1` (centres unmarked) [Terpinyl Acetate], “significant”.
On the same count and under the same terms, in the case of `CC(=O)/C=C/C1C(C)=CCCC1(C)C` (centres unmarked) [a-ionone] it was “strong”; in that of `CC(C=O)Cc1ccc(C(C)(C)C)cc1` (centres unmarked) [Lilial, Lilial (p-t-bucinal)], “strong”; in that of `CCOC(=O)c1ccccc1C(=O)OCC` [Diethyl Phthalate], “weak”.
Same read-out and setting: in the case of `O=C(Cc1ccccc1)OCCc1ccccc1` [Phenyl-Ethyl-Phenyl Acetate] it was “weak”; in that of a-Me Ionone, “strong”; in that of `CCCCCCC(C=O)=Cc1ccccc1` [Hexyl cinnamic Aldehyde], “weak”.
As for `CCC(=O)OC1CC2CC1C1CC=CC21` (centres unmarked) [Frutene], the CD interaction entry is “strong”.
Same read-out and setting: in the case of `CC(=O)C(C)=C(C)C(C)C(C)(C)C` (centres unmarked) [Koavone] it was “strong”.
As to `CC(C=O)Cc1ccc(C(C)C)cc1` (centres unmarked) [Cymal], the CD interaction entry is given as “strong”.
The same measure, in the same setting: with `CC(=O)OC1CCC(C(C)(C)C)CC1` (centres unmarked) [Vertenex, para-tert-butylcyclohexyl acetate] the entry was “strong”; with `CC(=O)C1(C)CC2=C(CCCC2(C)C)CC1C` (centres unmarked) [Iso-E Super], “weak”.
Turning to `CCCCCC1C(=O)CCC1CC(=O)OC` (centres unmarked) [Methyl Dihydro Jasmonate], the CD interaction result is given as “weak”.
Same read-out and setting: with `CC1COCc2cc3c(cc21)C(C)(C)C(C)C3(C)C` (centres unmarked) [Galaxolide] the entry was “weak”; with `CCCCCCOC(=O)c1ccccc1O` [Hexyl Salicylate], “weak”.

Another series is described as follows: Elevation in surface tension of surfactant solution in the presence of cyclodextrin. The format is physicochemical. To be noted: in the presence of a typical cyclodextrin (about 1% solution). The text has this:
Suitable cyclodextrin-compatible surfactants can be readily identified by the absence of effect of cyclodextrin on the surface tension provided by the surfactant. This is achieved by determining the surface tension (in dyne/cm) of aqueous solutions of the surfactant in the presence and in the absence of about 1% of a specific cyclodextrin in the solutions. The aqueous solutions contain surfactant at concentrations of approximately 0.5%, 0.1%, 0.01%, and 0.005%. The cyclodextrin can affect the surface activity of a surfactant by elevating the surface tension of the surfactant solution. If the surface tension at a given concentration in water differs by more than about 10% from the surface tension of the same surfactant in the 1% solution of the cyclodextrin, that is an indication of a strong interaction between the surfactant and the cyclodextrin. The preferred surfactants herein should have a surface tension in an aqueous solution that is different (lower) by less than about 10%, preferably less than about 5%, and more preferably less than about 1% from that of the same concentration solution containing 1% cyclodextrin.
The cyclodextrin-compatible surfactants described above are either weakly interactive with cyclodextrin (less than 5% elevation in surface tension), or non-interactive (less than 1% elevation in surface tension).
Regarding dodecanolpoly(6)ethoxylate, the “elevation in surface tension” value is recorded as above 10%.
The same measure, in the same setting: with `CCCCCCCCCCCCOS(=O)(=O)[O-].[Na+]` [sodium dodecyl sulfate] the figure was above 10%.

The values are drawn from patent EP1212395B1, “IMPROVED METHODS, COMPOSITIONS, AND ARTICLES FOR ODOR CONTROL” (THE PROCTER & GAMBLE COMPANY, priority 1999, dated 2001).
